Measured values published in ChEMBL document CHEMBL1127723, “Tetrahydroisoquinoline derivatives with AT2-specific angiotensin II reception binding inhibitory activity” (Bioorg Med Chem Lett, 1994).

System: Type-2 angiotensin II receptor (Oryctolagus cuniculus)
Experiment: Inhibitory activity against angiotensin II type 2 (AT2) receptor in rabbit uterine membranes at 10e-6 M; not active; call rule not given here

IC50: Not Active
Compound: COc1ccc2c(c1O)CC(C(=O)O)N(C(=O)N(C)c1ccccc1)C2 (stereo unspecified)
